Test results published in US20040019068A1, “Novel remedies or preventives for angiostenosis” (priority 2000, published 2004).

Assays:
chymase = biological target: T1, chymase (Canis lupus familiaris, UniProt P21842); experiment: Chymase activity measurement in implanted blood vessel, dog bypass graft model; assay type: in vivo, dog (beagle); conditions: implanted blood vessel 28 days after bypass grafting; 5 mg/kg orally once a day in capsules for 33 days; angiotensin I substrate
T1 construct: An isolated blood vessel was combined with a 10-fold volume (w/v) of a 20 mM sodium phosphate buffer solution (pH7.4); from tissue; host or cells: implanted jugular vein graft of beagle dogs (homogenate, high-salt/detergent extract supernatant)
T1 sequence (P21842 22-249): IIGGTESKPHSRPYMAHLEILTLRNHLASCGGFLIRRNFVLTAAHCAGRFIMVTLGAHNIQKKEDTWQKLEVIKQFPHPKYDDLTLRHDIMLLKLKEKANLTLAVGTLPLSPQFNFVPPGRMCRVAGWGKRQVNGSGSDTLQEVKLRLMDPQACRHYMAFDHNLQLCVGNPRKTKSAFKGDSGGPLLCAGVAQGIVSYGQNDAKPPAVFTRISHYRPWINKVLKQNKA
Description: (A) Bypass Graft Model Preparation
(§1) 10 Male adult beagles (8 to 10 kg) purchased from NIPPON SLC were anesthetized with an intravenous administration of pentobarbital sodium at 35 mg/kg per animal. The cervical position was incised, and a right jugular vein was isolated and implanted into the carotid artery on the same side (J.Hum.Hypertens., 12 (suppl.1), S21(1999)). After implantation, the incision was sutured and the animal was raised as usual after coming out from the anesthetic.
(§2) 2 Groups each including 5 dogs, which had been subjected to the bypass grafting, were provided as the treatment group and the non-treatment group. In the treatment group, 2-(5-formylamino-6-oxo-2-phenyl-1,6-dihydropyrimidin-1-yl)-N-[2,3-dioxo-1-phenylmethyl-6-(2-pyridyloxy)]hexylacetamide (No. 10) was orally administered at a dose of 5 mg/kg once a day in capsules every day over a period of 33 days in total from 5 days before the bypass grafting through the day of the blood vessel sampling.
28 Days after the bypass grafting, 35 mg/kg of pentobarbital sodium was given intravenously to anesthetize. […]
The chymase activity was measured using angiotensin I as a substrate. […] Immediately after completion of the reaction, angiotensin II produced was quantified using a high performance liquid chromatography, and the chymase activity of the tissue was calculated.

[1] = system: implanted blood vessel (jugular vein implanted into the carotid artery); experiment: Restenosis test in dog bypass graft model; assay type: in vivo, dog (beagle); conditions: implanted blood vessel 28 days after bypass grafting, 5 mg/kg orally once a day for 33 days
Description: as §1, §2
28 Days after the bypass grafting, 35 mg/kg of pentobarbital sodium was given intravenously to anesthetize. The implanted vein and the jugular vein on the other side were isolated, and each was cut at the center. […]
Based on the areas obtained in (D) described above and using the following equation, a vascular stenosis ratio of each individual animal was calculated. […]

[2] = system: balloon-injured right carotid artery; experiment: Restenosis test in dog carotid artery balloon injury model; assay type: in vivo, dog (beagle); conditions: 28 days after balloon injury
Description: 21 Male adult beagles (9.4 to 11.4 kg) purchased from NIPPON NOSAN KOGYO were anesthetized with an intravenous administration of pentobarbital sodium at 30 mg/kg per animal. After immobilizing each animal in the spine position, the cervical part was incised and the right and left carotid arteries were exposed. After intravenous administration of 1000 U of heparin sodium, the right carotid artery branch was incised and the tip of a balloon catheter (Baxter 4 Fr, 40 cm) was inserted from the carotid artery to the aortic arch. With the balloon being inflated with application of pressure, the catheter was drawn out to injure the intima of the blood vessel. This procedure was repeated 5 times, and the balloon catheter was taken out, and the incision in the blood vessel was ligated. After suturing the skin incision, 1000 U of heparin sodium and 100 mg of ampicillin sodium were administered intramuscularly for the postoperative maintenance.
3 Groups each including 7 balloon-injured dogs were divided as the high dose treatment group, low dose treatment group and non-treatment group. 2-(5-Formylamino-6-oxo-2-phenyl-1,6-dihydropyrimidin-1-yl)-N-[2,3-dioxo-1-phenylmethyl-6-(2-pyridyloxy)]hexylacetamide (No. 10) was given at a dose of 1 mg/kg in the high dose treatment group and at 0.2 mg/kg in the low dose treatment group once a day in capsules every day over a period of 33 days in total from 5 days before the balloon injury through the day of the blood vessel sampling. In the non-treatment group, vacant capsules were given every day. In all groups, 50 ml or more of a tap water was given forcibly after administration.
Twenty eight (28) days after the balloon injury, 30 mg/kg of pentobarbital sodium was given intravenously to anesthetize. After exsanguination, the right carotid artery as an injured position was isolated, and cut into 3 pieces. About 5 mm was cut out of each of the sections which were distal, proximal and center with regard to the heart. The left carotid artery was also isolated as a non-injury position, from the center of which about 5 mm was cut off, and each was fixed in 10% formalin neutral buffer solution.
Each vascular tissue embedded in a paraffin was shaved into sections, and subjected to a Hematoxylin-Eoshin staining. The intraluminal area, the area inside the intima and the area inside the media were measured using Olympus Image Analyzer Model VM-30.
Based on the areas obtained in (D) described above and using the following equation, a vascular stenosis ratio and a vascular lumen ratio of each position were calculated, and the mean of the three positions was regarded as the value of each individual animal. In the equation, A is an area inside the intima, B is an intraluminal area and C is an area inside the media. […]

[3] = rat, in vivo, po, 100 mg/kg
Excerpt: A compound employed in the invention has a low toxicity, and any compound undergoes a characteristically low accumulation of the toxicity when given continuously. […] In addition, another characteristic advantage is the possibility of giving orally as a therapeutic or prophylactic agent for an angiostenosis.

[4] = clinical tests in Japan (RINSHO IYAKU, 12(1), 65 (1996)); cited from earlier work
[5] = High dose 1 mg/kg once a day in capsules for 33 days, p<0.05 vs non-treatment

SMILES | Chymase activity (chymase) | intima area [1] | Vascular stenosis ratio ([1]; [(A-B)/(C-A)]x100) | Vascular lumen ratio [2, 5] | Vascular stenosis ratio [2, 5] | Vascular stenosis ratio ([2]; Low dose 0.2 mg/kg once a day in capsules for 33 days) | Vascular lumen ratio ([2]; Low dose 0.2 mg/kg once a day in capsules for 33 days, B/Cx100) | toxicological change [3] | side effect in clinical tests [4]
O=CNc1cnc(-c2ccccc2)n(CC(=O)NC(Cc2ccccc2)C(=O)C(=O)CCCOc2ccccn2)c1=O (stereo not drawn) [Compound No. 10, 2-(5-formylamino-6-oxo-2-phenyl-1,6-dihydropyrimidin-1-yl)-N-[2,3-dioxo-1-phenylmethyl-6-(2-pyridyloxy)]hexylacetamide] | 4.88 ± 0.53 mU/mg protein | 1.78 ± 0.12 mm2 | 30.9 ± 8.8% | 41.6 ± 1.1 % | 10.5 ± 1.8 % | 13.6 ± 2.0% | 38.4 ± 2.0% | no toxicological change | 
COc1ccc(/C=C/C(=O)Nc2ccccc2C(=O)O)cc1OC [tranilast] |  |  |  |  |  |  |  |  | hepatic dysfunction as a highly frequent side effect
